Assays:
Assay type in all cases: physicochemical
[1] = Sticking property due to electrostatic charge during pulverization by a mortar; details: collection by stainless spatula
Method: The inside of a 300 mL reaction flask (made of heat resistant glass) was replaced with nitrogen, and thereafter 40 g of commercially available reduced coenzyme Q10 (produced by Kaneka Corporation, conventionally known reduced coenzyme Q10 crystal) and 60 g of n-hexane were charged thereto and warmed to 40° C. with stirring to completely dissolve the reduced coenzyme Q10 in n-hexane. The solution was cooled to 25° C. at a cooling rate of 10° C./hour, then kept at 25° C. for 96 hours while being continuously stirred, and subjected to filtration and drying (drying under reduced pressure, 20 to 40° C.) to provide a crystal. From the result of analysis by DSC, the crystal was confirmed to have an endothermic peak indicating melting at 54.2° C. during temperature rise at a rate of 5° C./min, and an endothermic peak indicating melting at 51.6° C. during temperature rise at a rate of 1° C./min. In addition, as the result of analysis by powder X-ray diffraction, characteristic peaks at diffraction angles (2θ±0.2°) of 11.50°, 18.26°, 19.30°, 22.30°, 23.00° and 33.14° were observed as shown in FIG. 1. […] From the above analysis results, it was confirmed that the reduced coenzyme Q10 crystal obtained in the present Example was in a different crystal form from the conventionally known reduced coenzyme Q10 crystal. […]

[2] = Solubility of the crystal in hexane; details: n-hexane, temperature of 25° C.
Method: The inside of a 300 mL reaction flask (made of heat resistant glass) was replaced with nitrogen, and thereafter 40 g of commercially available reduced coenzyme Q10 (produced by Kaneka Corporation, conventionally known reduced coenzyme Q10 crystal) and 60 g of n-hexane were charged thereto and warmed to 40° C. with stirring to completely dissolve the reduced coenzyme Q10 in n-hexane. The solution was cooled to 25° C. at a cooling rate of 10° C./hour, then kept at 25° C. for 96 hours while being continuously stirred, and subjected to filtration and drying (drying under reduced pressure, 20 to 40° C.) to provide a crystal. From the result of analysis by DSC, the crystal was confirmed to have an endothermic peak indicating melting at 54.2° C. during temperature rise at a rate of 5° C./min, and an endothermic peak indicating melting at 51.6° C. during temperature rise at a rate of 1° C./min. In addition, as the result of analysis by powder X-ray diffraction, characteristic peaks at diffraction angles (2θ±0.2°) of 11.50°, 18.26°, 19.30°, 22.30°, 23.00° and 33.14° were observed as shown in FIG. 1. […] From the above analysis results, it was confirmed that the reduced coenzyme Q10 crystal obtained in the present Example was in a different crystal form from the conventionally known reduced coenzyme Q10 crystal. The solubility of the resulting crystal in hexane was measured, and found to be 9% by weight at a temperature of 25° C.

[3] = Solubility of the crystal in ethanol; details: temperature of 30° C.

| SMILES | sticking property due to electrostatic charge [1] | solubility in hexane [2] [% by weight] | solubility in ethanol [3] |
| --- | --- | --- | --- |
| COc1c(O)c(C)c(C/C=C(\C)CC/C=C(\C)CC/C=C(\C)CC/C=C(\C)CC/C=C(\C)CC/C=C(\C)CC/C=C(\C)CC/C=C(\C)CC/C=C(\C)CCC=C(C)C)c(O)c1OC [Comparative Example 1, reduced coenzyme Q10] | exhibited remarkable sticking property | 36.5 | – |
| COc1c(O)c(C)c(C/C=C(\C)CC/C=C(\C)CC/C=C(\C)CC/C=C(\C)CC/C=C(\C)CC/C=C(\C)CC/C=C(\C)CC/C=C(\C)CC/C=C(\C)CCC=C(C)C)c(O)c1OC [Example 1, reduced coenzyme Q10] | did not exhibit sticking property | 9 | – |
| COc1c(O)c(C)c(C/C=C(\C)CC/C=C(\C)CC/C=C(\C)CC/C=C(\C)CC/C=C(\C)CC/C=C(\C)CC/C=C(\C)CC/C=C(\C)CC/C=C(\C)CCC=C(C)C)c(O)c1OC [conventionally known reduced coenzyme Q10 crystal] | – | ≥ 30 | ≥ 4 % by weight |
| COc1c(O)c(C)c(C/C=C(\C)CC/C=C(\C)CC/C=C(\C)CC/C=C(\C)CC/C=C(\C)CC/C=C(\C)CC/C=C(\C)CC/C=C(\C)CC/C=C(\C)CCC=C(C)C)c(O)c1OC [reduced coenzyme Q10 crystal of the present invention] | – | ≤ 15 | less than 4 % by weight |

Source: US9556098B2, “Reduced coenzyme Q10 crystal having excellent stability” (KANEKA CORPORATION, priority 2011, dated 2017)
